Common to all, as to test: growth of human tumour cells (NCI), 48 h
Test [1] deals with M14 melanoma.
In test [2] the test system is HL-60(TB) leukemia.
Test [3] has as its system HT29 colon.
Test [4] relates to M19-MEL melanoma.
Test [5] relates to SF-539 CNS.
Test [6] has as its system NCI-H522 lung.
The test system of test [7] is RXF 393 renal.
Test [8] relates to 786-0 renal.
Test [9] concerns CAKI-1 renal.
Test [10] has as its system OVCAR-4 ovarian.
Test [11] has as its system EKVX NSCLC.
Test [12] relates to A549 NSCLC.
The subject of test [13] is KM12 colon.
Test [14] concerns SK-MEL-28 melanoma.
In test [15] the test system is OVCAR-5 ovarian.
Test [16] concerns SR leukemia.
Test [17] concerns UO-31 renal.
Test [18] relates to TK-10 renal.
Test [19] deals with A498 renal.

Results on 7 compounds are retold here after PubChem BioAssay (NCI).

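Growth conditions: 96-well plates. Treatment: test compound, 48 hours, 5 concentrations. Analysis: linear interpolation between bracketing concentrations; unreached endpoints set to highest concentration. At the TGI there is no net growth.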

Take `CCOC(=O)C(C(=O)OCC)=C1N[C@H](C(=O)OCC)CS1`: the TGI in [1], in test [2], in test [3], in test [4], in test [5] and in test [6] was over 100 µM in each case. Besides, the TGI in test [7], in [8], in test [9], in [10], in test [11] and in [12] was over 100 µM in each case. In addition, the TGI in test [13], in [14], in test [15], in test [16] and in test [17] was over 100 µM in each case.

For `CCCCCNC(=O)c1c(O)[nH]c(=S)[nH]c1=O`, the TGI in test [1], in [2], in test [18], in test [3], in test [4] and in test [5] was over 100 µM throughout. The TGI in test [6], in test [8], in test [9], in test [10], in test [12] and in test [13] was over 100 µM throughout. In addition, the TGI in [14], in test [15], in [16] and in test [19] was over 100 µM each time.

Take `COc1ccccc1C(N)c1ccccc1` (stereo not given): the TGI in [1], in test [2], in [18], in test [3], in [4] and in test [5] was over 100 µM throughout. The TGI in [6], in test [7], in test [8], in [10], in test [11] and in [12] was over 100 µM in each case. In addition, the TGI in test [13], in test [14], in [15], in test [17] and in test [19] was over 100 µM each time.

Regarding `Cc1c(C(=O)/C=C/c2c(Cl)cccc2Cl)c(=O)n(-c2ccccc2)n1C`, the TGI in [18] was over 100 µM; in test [3], over 100 µM; in [4], over 100 µM; in test [6], 48.5 µM; in [7], 20.4 µM; in test [8], 38.6 µM. The TGI in test [9] was over 100 µM; in test [11] it was over 100 µM; in test [12] it was 74.9 µM; in test [13], 44.8 µM; in test [14] it was over 100 µM; in [15] it was over 100 µM. Moreover, the TGI in test [17] was over 100 µM; in [19], 98.4 µM.

With `O=C(c1nc2ccc(Cl)cc2[nH]c1=O)C(O)c1ccc2c(c1)OCO2` (stereo not given), the TGI in [1], in [2], in test [18], in test [3], in test [4] and in test [6] was over 100 µM throughout. Besides, the TGI in [7], in test [8], in test [10], in test [11], in test [12] and in [13] was over 100 µM in each case. Further, the TGI in test [14], in [15], in test [17] and in test [19] was over 100 µM each time.

In the case of `O=NN/C(=C1\Nc2ccc([N+](=O)[O-])cc2NC1=O)C(O)c1ccc([N+](=O)[O-])cc1` (stereo not given), the TGI in test [1], in [2], in test [3], in test [4], in [5] and in [6] was over 100 µM each time. Also, the TGI in test [7], in [8], in [9], in [10], in test [12] and in test [13] was over 100 µM in each case. Moreover, the TGI in test [14], in test [15], in test [16] and in test [17] was over 100 µM in each case.

For the compound `CC1=CC(=O)c2c(C=O)c(O)c(O)c(C(C)C)c2C1=O`, the TGI in test [1] is over 100 µM; in [2], over 79.5 µM; in test [4] it was over 100 µM; in test [5], 58.4 µM; in [6], 32.4 µM; in test [7] it was 20.8 µM. In addition, the TGI was 45.5 µM in test [8]; 52.9 µM in test [9]; 23.8 µM in test [10]; over 100 µM in test [14]; over 92.2 µM in test [15]; over 74.4 µM in test [16]. For the same compound, the TGI in test [17] was over 56.8 µM; in test [19], 78 µM.
